Source: patent US6833456B2, “Indolyl-urea derivatives of thienopyridines useful as antiangiogenic agents, and methods for their use” (Agouron Pharmaceuticals, Inc., priority 2002, dated 2004)

What was measured:
[1] = tested on: human umbilical vein endothelial cells (HUVEC); assay: HUVEC+VEGF proliferation assay; type: cell-based; details: Homo sapiens, HUVEC, 72 h, VEGF 6 ng/mL, MTT
How it was run: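 Proliferation driven by VEGF (final 6 ng/mL) was quantified by MTT reduction (A595) 72 h after stimulation. Passage 3-4 HUVEC were starved for 24 h in 1% FBS F12K and given test agent 1 h before VEGF, with DMSO at 0.1% final.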

[2] = molecular target: T1, unphosphorylated VEGF-R2Δ50 (FLVK) (Homo sapiens, UniProt P35968, DEL940-989/E990V); assay: VEGF-R2 coupled spectrophotometric assay, unphosphorylated construct (FLVK); type: biochemical; details: for inhibition at 0.05 µM: percent inhibition at 50 nM
T1 construct: VEGF-R2Δ50 contains residues 806-939 and 990-1171; made in house; host or cells: baculovirus/insect cell system
How it was run: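 Continuous coupled assay (PEP, PK, LDH; NADH loss at 340 nm) in 200 mM HEPES pH 7.5 with 3 mM ATP, 20 mM poly(E4Y1), 60 mM MgCl2 plus 2 mM MnCl2, started with 5-40 nM non-autophosphorylated VEGF-R2Δ50. Ki values from activity across compound concentrations, Morrison fit.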

HUVEC = assay: bFGF HUVEC proliferation; type: cell-based, human; details: bFGF stimulated HUVEC
Mouse PK assay = type: in vivo, B6 female mice; details: po; for AUC / Cmax: female, B6, mouse, plasma, 50 mg/kg; for Cmax: p.o., read-out: Mouse Cmax, po ng-h/mL
How it was run: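 Plasma levels were measured by HPLC with UV detection after acetonitrile precipitation, using extracted standards, in blood taken up to 4 h (0.5, 1, 2, 4 h) post-dose. Dosing: 50 mg/kg orally or intraperitoneally to two groups of four female B6 mice, vehicle PEG 400:acidified H2O 30:70 suspension.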

T1 sequence (P35968 with tags, fused parts or gaps DEL940-989/E990V limits assumed): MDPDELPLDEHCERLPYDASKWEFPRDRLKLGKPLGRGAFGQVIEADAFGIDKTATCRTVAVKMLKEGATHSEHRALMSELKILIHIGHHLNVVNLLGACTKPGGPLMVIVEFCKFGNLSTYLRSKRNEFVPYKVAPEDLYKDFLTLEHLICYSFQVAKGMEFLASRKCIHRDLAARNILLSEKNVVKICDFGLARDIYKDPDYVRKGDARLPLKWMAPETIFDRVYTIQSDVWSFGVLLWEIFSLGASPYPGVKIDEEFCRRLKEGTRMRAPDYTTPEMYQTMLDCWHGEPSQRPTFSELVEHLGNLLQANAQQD

SMILES | IC50 [1] [nM] | Ki [2] [nM] | inhibition at 0.05 µM [2] [%] | IC50 (HUVEC; Homo sapiens, HUVEC) [nM] | IC50 (HUVEC) [nM] | AUC (Mouse PK assay) [ng·h/mL] | Cmax (Mouse PK assay) [ng/mL] | Mouse Cmin, po (Mouse PK assay) [ng/mL]
CNC(=O)n1c(C)cc2cc(Oc3ccnc4cc(C(=O)N5CC[C@@H](OC)C5)sc34)ccc21 [Example 4j, 5-[2-(3R-Methoxy-pyrrolidine-1-carbonyl)-thieno[3,2-b]pyridin-7-yloxy]-2-methyl-indole-1-carboxylic acid methylamide] | 0.088 | 0.121 | 96 | 2.5 | 4.7 | 5080 | 3430 | 32
C#CCNC(=O)n1c(C)cc2cc(Oc3ccnc4cc(C(=O)N5CC[C@@H](O)C5)sc34)ccc21 [Example 4o, 5-[2-(3R-Hydroxy-pyrrolidine-1-carbonyl)-thieno[3,2-b]pyridin-7-yloxy]-2-methyl-indole-1-carboxylic acid prop-2-ynylamide] | 0.071 | 0.63 | 97 | 7.9 | – | 28500 | 5070 | 825
C#CCNC(=O)n1c(C)cc2cc(Oc3ccnc4cc(C(=O)N5CCC[C@@H]5CO)sc34)ccc21 [Example 8q, 5-[2-(2R-Hydroxymethyl-pyrrolidine-1-carbonyl)-thieno[3,2-b]pyridin-7-yloxy]-2-methyl-indole-1-carboxylic acid prop-2-ynylamide] | 0.19 | 0.286 | 97 | 95 | – | 31300 | 10400 | 1297
CCCNC(=O)n1c(C)cc2cc(Oc3ccnc4cc(C(=O)N5CC[C@H](O)C5)sc34)ccc21 [Example 9i, 5-[2-(3S-Hydroxy-pyrrolidine-1-carbonyl)-thieno[3,2-b]pyridin-7-yloxy]-2-methyl-indole-1-carboxylic acid propylamide] | 0.37 | 0.245 | 98 | 5 | – | 9480 | 2320 | 461
Cc1cc2cc(Oc3ccnc4cc(C(=O)N5CC[C@H](O)C5)sc34)ccc2n1C(=O)NCCCO [Example 9l, 5-[2-(3S-Hydroxy-pyrrolidine-1-carbonyl)-thieno[3,2-b]pyridin-7-yloxy]-2-methyl-indole-1-carboxylic acid (3-hydroxy-propyl)-amide] | 0.27 | 0.327 | 97 | 37.6 | – | 138 | 56 | 4
